One assay has as its system metastatic melanoma. The experiment in a line: Immune checkpoint therapy patient's clinical response. The format is in vivo, human. The following applies: patient #39, previously progressed on other therapies. The procedure: (§1) Ethics Statement. All clinical data and patient samples were collected following approval by the Massachusetts General Hospital institutional review board and the Hospital of the University of Pennsylvania institutional review board. In all cases informed consent was obtained. All animal studies were conducted in accordance with the Guide for the Care and Use of Laboratory Animals of the NIH. Mice were maintained according to the guidelines of the Wistar Institutional Animal Care and Use Committee (IACUC), and study designs were approved by the Wistar IACUC.
RNA-seq of 31 paired pre-, on- and/or post-treatment tumor biopsies derived from 12 patients who were treated with various immune checkpoint blockade therapies were carried out. […] The ssGSEA identified that “packaging of telomere ends” and “telomere maintenance” were highly enriched in 7 out 12 patients' on- or post-treatment tumor biopsies (FIG. 11). […] Prior to pembrolizumab, this patient progressed on vemurafenib, IL-2, ipilimumab, and dabrafenib plus trametinib. It was observed that “telomere maintenance” and “packaging of telomere ends” were highly enriched in this patient's on-treatment tumor biopsy compared to the paired pre-treatment tumor biopsy (FIG. 9F and Table 8). 00449194) 96

Assay [1] has as its system metastatic melanoma (BRAF mutation). The experiment in a line: Targeted therapy patients' clinical response. It is filed as in vivo, human. The following applies: one patient per row; vemurafenib 1920 mg daily. How it is done: as §1
In addition to treatment-naïve human melanoma, paired pre-, on- and post-treatment tumor biopsies derived from patients with metastatic melanoma who were treated with targeted therapies or immune checkpoint blockade therapies were analyzed.

Another assay has as its system PEO4. The experiment in a line: Relative cell viability, PEO4. The format is cell-based, human. The following applies: 5 days. The procedure: (§2) Additionally, the efficacy of 6-thio-dG was tested using two human ovarian cancer cell lines, PEO4 and PEO1-CR. PEO4 is a derivative line of BRCA1/2-mutant PEO1 that regains homologous recombination by BRCA reversion mutation. […] Importantly, all three cell lines were sensitive to 6-thio-dG after the 5-day treatment (FIGS. 14H-14J).

A further assay deals with WO-24-2. The assay can be described thus: Relative cell viability, patient-derived culture WO-24-2. The format is cell-based, human. Particulars: carboplatin at indicated doses, 5 days. From the text:
A short-term primary culture, WO-24-2 from a therapy-resistant human ovarian cancer, was also established. The WO-24-2 tumor was resected from a patient with high grade serous ovarian cancer who underwent an interval debulking surgery after receiving neoadjuvant chemotherapy with platinum/taxane and subsequently progressed on platinum chemotherapy. Immunofluorescence staining of PAX8 and cytokeratin 7 confirmed that these were indeed human ovarian cancer cells (FIG. 14K) (George et al., 2017).

For a further assay, the system named is PEO1. The experiment in a line: Relative cell viability, PEO1. It is filed as cell-based, human. Particulars: 5 days. How it is done: as §2
A further assay relates to PEO1-CR. The experiment in a line: Relative cell viability, PEO1-CR. It is filed as cell-based, human. Particulars: 5 days. How it is done: as §2
Assay [2] has as its system panel of 12 cancer cell lines of 9 different histological origins. The experiment in a line: Long-term cell growth assay (crystal violet), 12 non-melanoma cancer cell lines. It is filed as cell-based. Particulars: dose of 25 μM; 9-12 days. The procedure: FIGS. 1A-1B show long-term cell growth assay of 12 non-melanoma cancer cell lines (FIG. 1A) and 12 BRAF-mutant melanoma cell lines (FIG. 1B) that were treated with 6-thio-dG (6dG) or BIBR 1532 (BIBR) at indicated doses for 9 to 12 days.
Treatment of a Variety of Cancer Cell Lines with Telomerase-directed 6-thio-dG Impairs Cell Viability. […] To further confirm the inhibitory effect of 6-thio-dG, a panel of 12 cancer cell lines of 9 different histological origins was treated with 6-thio-dG for 9-12 days. As the control for 6-thio-dG, a known telomerase inhibitor, BIBR 1532, was also included. In most cases, these cancer cell lines were sensitive to 6-thio-dG administered at a dose of 2.5 μM and higher (FIG. 1A).

“And” between values parts separate entries of the source, which are not always exact repeats. Equal values may be shown once.

With pembrolizumab: anti-PD-1 drug, the best response result in the assay with metastatic melanoma is given as “progressive disease”.

With `CCCS(=O)(=O)Nc1ccc(F)c(C(=O)c2c[nH]c3ncc(-c4ccc(Cl)cc4)cc23)c1F` [vemurafenib], in assay [1], the “Response (value in parentheses)” value is −16.5% and −51.2% and −53% and −24.9% and −81.5% and −60.5% and −56% and −27%; the “Time To Progression” value is 6 months and 5 months and 2 months and 4.3 months and PD at 9 months and 13.4 months and 8.5 months and 3.5 months and 6.5 months.

As to `N.N.O=C([O-])C1(C(=O)[O-])CCC1.[Pt+2]` [carboplatin, reference compound], the “sensitivity (relative cell viability)” value was “intrinsically resistant” with PEO4, “resistant” with WO-24-2, “sensitive” with PEO1 and “acquired resistance” in the assay on PEO1-CR.

On to `C/C(=C\C(=O)Nc1ccccc1C(=O)O)c1ccc2ccccc2c1` [BIBR 1532, reference compound], for which the anti-proliferative activity entry in assay [2] is “observed in a subset of 12 cancer cell lines”.

The values above are taken from patent US20240009223A1, “6-THIO-2'-DEOXYGUANOSINE (6-THIO-DG) RESULTS IN TELOMERASE DEPENDENT TELOMERE DYSFUNCTION AND CELL DEATH IN VARIOUS MODELS OF THERAPY-RESISTANT CANCER CELLS” (The Board of Regents of The University of Texas System, priority 2016, published 2024).
